From patent US20230012368A1 (Hoffmann-La Roche Inc., priority 2018, published 2023)
Structures can show the parent of a compound that is named as a salt. Where two headings read alike, the source gives them in different places.

Test system: Acinetobacter baumannii ATCC 17978
Experiment: Antimicrobial susceptibility testing: 90% growth inhibitory concentration (IC90) determination
Assay type: cell-based
Method in brief: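 Growth of the Acinetobacter baumannii strain was followed by optical density at 600 nm every 20 minutes for 16h at 35±2° C. Inoculum was ~5×10^(5) CFU/ml in Iso-Sensitest medium, with twofold compound dilutions (e.g. 50 to 0.097 μM final). The 90% inhibitory concentration was derived in log-phase growth.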

[1] = 90% growth inhibitory concentration, Acinetobacter baumannii ATCC17978, Iso-Sensitest broth, OD 600 nm over 16h, read-out: ATCC17978 IC90
[2] = Acinetobacter baumannii, ATCC17978, 16 h, 90% growth inhibitory concentration, Acinetobacter baumannii ATCC17978, Iso-Sensitest broth, OD 600 nm over 16h, read-out: ATCC17978 IC90

Row | Structure (SMILES) | IC90 [2] | other results
1 | COc1ccc(-c2cnc3c(Nc4ccc(C(=O)N(C)CCN5CCOC(CN(C)C)C5)c(C)c4)nccn23)cc1F (centres unmarked) [Example 108, N-[2-[2-[(dimethylamino)methyl]morpholin-4-yl]ethyl]-4-[[3-(3-fluoro-4-methoxy-phenyl)imidazo[1,2-a]pyrazin-8-yl]amino]-N,2-dimethyl-benzamide; formic acid] | – | IC90 [1]: 1.2 µM
2 | CNCC1CN(CCN(C)C(=O)c2ccc(Nc3nccn4c(-c5ccc(OC)c(F)c5)cnc34)cc2C)CCO1 (centres unmarked) [Example 109, 4-[[3-(3-fluoro-4-methoxy-phenyl)imidazo[1,2-a]pyrazin-8-yl]amino]-N,2-dimethyl-N-[2-[2-(methylaminomethyl)morpholin-4-yl]ethyl]benzamide hydrochloride] | – | IC90 [1]: 0.96 µM
3 | CNC(=O)c1ccc(Nc2nccn3c(-c4ccc(OC(F)F)cc4)cnc23)cc1Cl [Example 110, 2-chloro-4-((3-(4-(difluoromethoxy)phenyl)imidazo[1,2-a]pyrazin-8-yl)amino)-N-methylbenzamide] | 0.25 µM | –
4 | O=C(NCc1ccccn1)c1ccc(Nc2nccn3c(-c4ccc(OC(F)F)cc4)cnc23)cc1Cl [Example 111, 2-chloro-4-((3-(4-(difluoromethoxy)phenyl)imidazo[1,2-a]pyrazin-8-yl)amino)-N-(pyridin-2-ylmethyl)benzamide] | 2.1 µM | –
5 | COc1ccc(-c2cnc3c(Nc4ccc(C(=O)N(C)CCc5ncc[nH]5)c(C)c4)nccn23)cc1F [Example 112, 4-[[3-(3-fluoro-4-methoxy-phenyl)imidazo[1,2-a]pyrazin-8-yl]amino]-N-[2-(1H-imidazol-2-yl)ethyl]-N,2-dimethyl-benzamide] | 0.96 µM | –
6 | COc1ccc(-c2cnc3c(Nc4ccc(C(=O)N(C)CCN5CCN(CC(F)F)CC5)c(C)c4)nccn23)cc1F [Example 113, N-[2-[4-(2,2-difluoroethyl)piperazin-1-yl]ethyl]-4-[[3-(3-fluoro-4-methoxy-phenyl)imidazo[1,2-a]pyrazin-8-yl]amino]-N,2-dimethyl-benzamide; formic acid] | – | IC90 [1]: 2 µM
7 | CCOP(=O)(OCC)N1CCC(CCN(C)C(=O)c2ccc(Nc3nccn4c(-c5ccc(OC(F)F)cc5)cnc34)cc2C)CC1 [Example 115, N-[2-(1-diethoxyphosphoryl-4-piperidyl)ethyl]-4-[[3-[4-(difluoromethoxy)phenyl]imidazo[1,2-a]pyrazin-8-yl]amino]-N,2-dimethyl-benzamide] | – | IC90 (Acinetobacter baumannii, ATCC17978, 16 h, read-out: ATCC17978 IC90 [μM]): 0.85 µM
8 | COc1ccc(-c2cnc3c(Nc4ccc5c(c4)CCN(CCN(C)C)C5=O)nccn23)cc1F [Example 116, 2-[2-(dimethylamino)ethyl]-6-[[3-(3-fluoro-4-methoxy-phenyl)imidazo[1,2-a]pyrazin-8-yl]amino]-3,4-dihydroisoquinolin-1-one] | 0.94 µM | –
9 | CCc1cc(Nc2nccn3c(-c4ccc(OC)c(F)c4F)cnc23)ccc1C(=O)NCCN [Example 117, N-(2-aminoethyl)-4-((3-(2,3-difluoro-4-methoxyphenyl)imidazo[1,2-a]pyrazin-8-yl)amino)-2-ethylbenzamide dihydrochloride] | – | IC90 [1]: 0.56 µM
10 | CCc1cc(Nc2nccn3c(-c4ccc(OC)c(F)c4F)cnc23)ccc1C(=O)NCCCN [Example 118, N-(3-aminopropyl)-4-((3-(2,3-difluoro-4-methoxyphenyl)imidazo[1,2-a]pyrazin-8-yl)amino)-2-ethylbenzamide dihydrochloride] | – | IC90 [1]: 0.45 µM
11 | CCc1cc(Nc2nccn3c(-c4ccc(OC)c(F)c4F)cnc23)ccc1C(=O)NCCCNC(=O)NCCN [Example 119, N-[3-(2-aminoethylcarbamoylamino)propyl]-4-[[3-(2,3-difluoro-4-methoxy-phenyl)imidazo[1,2-a]pyrazin-8-yl]amino]-2-ethyl-benzamide] | 0.18 µM | –
12 | CCc1cc(Nc2nccn3c(-c4ccc(OC)c(F)c4F)cnc23)ccc1C(=O)NCCCNC(=O)NCCCN [Example 120] | 0.14 µM | –
13 | CCc1cc(Nc2nccn3c(-c4ccc(OC)c(F)c4F)cnc23)ccc1C(=O)NCCNC(=O)[C@@H](N)CCCNC(=N)N [Example 121, N-[2-[[(2S)-2-amino-5-guanidino-pentanoyl]amino]ethyl]-4-[[3-(2,3-difluoro-4-methoxy-phenyl)imidazo[1,2-a]pyrazin-8-yl]amino]-2-ethyl-benzamide trifluoroacetate] | 0.28 µM | –
14 | CCc1cc(Nc2nccn3c(-c4ccc(OC)c(F)c4F)cnc23)ccc1C(=O)NC[C@@H](C)NC(=O)[C@@H](N)CCCNC(=N)N [Example 122, N-[(2R)-2-[[(2S)-2-amino-5-guanidino-pentanoyl]amino]propyl]-4-[[3-(2,3-difluoro-4-methoxy-phenyl)imidazo[1,2-a]pyrazin-8-yl]amino]-2-ethyl-benzamide formate] | 0.31 µM | –
15 | CCc1cc(Nc2nccn3c(-c4ccc(OC)c(F)c4F)cnc23)ccc1C(=O)NC[C@H](C)NC(=O)[C@@H](N)CCCNC(=N)N [Example 123, N-[(2S)-2-[[(2S)-2-amino-5-guanidino-pentanoyl]amino]propyl]-4-[[3-(2,3-difluoro-4-methoxy-phenyl)imidazo[1,2-a]pyrazin-8-yl]amino]-2-ethyl-benzamide formate] | 0.41 µM | –
16 | CCc1cc(Nc2nccn3c(-c4ccc(OCC#N)c(F)c4F)cnc23)ccc1C(=O)NCCNC(=O)[C@@H](N)CCCNC(=N)N [Example 124, N-[2-[[(2S)-2-amino-5-guanidino-pentanoyl]amino]ethyl]-4-[[3-[4-(cyanomethoxy)-2,3-difluoro-phenyl]imidazo[1,2-a]pyrazin-8-yl]amino]-2-ethyl-benzamide formate] | 0.09 µM | –
17 | CCc1cc(Nc2nccn3c(-c4ccc(OC)c(F)c4F)cnc23)ccc1C(=O)NCCNC(=O)[C@H](N)CCCNC(=N)N [Example 125, N-[2-[[(2R)-2-amino-5-guanidino-pentanoyl]amino]ethyl]-4-[[3-(2,3-difluoro-4-methoxy-phenyl)imidazo[1,2-a]pyrazin-8-yl]amino]-2-ethyl-benzamide formate] | 0.12 µM | –
18 | CCc1cc(Nc2nccn3c(-c4ccc(OC)c(F)c4Cl)cnc23)ccc1C(=O)NCCNC(=O)[C@@H](N)CCCNC(=N)N [Example 126, N-[2-[[(2S)-2-amino-5-guanidino-pentanoyl]amino]ethyl]-4-[[3-(2-chloro-3-fluoro-4-methoxy-phenyl)imidazo[1,2-a]pyrazin-8-yl]amino]-2-ethyl-benzamide formate] | 0.21 µM | –
19 | CCc1cc(Nc2nccn3c(-c4ccc(OCC#N)c(F)c4Cl)cnc23)ccc1C(=O)NCCNC(=O)[C@H](N)CCCNC(=N)N [Example 127, N-[2-[[(2R)-2-amino-5-guanidino-pentanoyl]amino]ethyl]-4-[[3-[2-chloro-4-(cyanomethoxy)-3-fluoro-phenyl]imidazo[1,2-a]pyrazin-8-yl]amino]-2-ethyl-benzamide formate] | 0.09 µM | –
20 | CCc1cc(Nc2nccn3c(-c4ccc(OC)c(F)c4F)cnc23)ccc1C(=O)NCCNC(=O)[C@@H](N)CCCNC1=NCCN1 [Example 128, N-[2-[[(2S)-2-amino-5-(4,5-dihydro-1H-imidazol-2-ylamino)pentanoyl]amino]ethyl]-4-[[3-(2,3-difluoro-4-methoxy-phenyl)imidazo[1,2-a]pyrazin-8-yl]amino]-2-ethyl-benzamide formate] | 0.24 µM | –
21 | CCc1cc(Nc2nccn3c(-c4ccc(OC)c(F)c4Cl)cnc23)ccc1C(=O)NCCNC(=O)[C@H](N)CCCNC(=N)N [Example 129, N-[2-[[(2R)-2-amino-5-guanidino-pentanoyl]amino]ethyl]-4-[[3-(2-chloro-3-fluoro-4-methoxy-phenyl)imidazo[1,2-a]pyrazin-8-yl]amino]-2-ethyl-benzamide formate] | 0.25 µM | –
22 | CCc1cc(Nc2nccn3c(-c4ccc(Cl)c(F)c4F)cnc23)ccc1C(=O)NCCNC(=O)[C@H](N)CCCNC(=N)N [Example 130, N-[2-[[(2R)-2-amino-5-guanidino-pentanoyl]amino]ethyl]-4-[[3-(4-chloro-2,3-difluoro-phenyl)imidazo[1,2-a]pyrazin-8-yl]amino]-2-ethyl-benzamide formate] | 0.64 µM | –
23 | CCc1cc(Nc2nccn3c(-c4ccc(OC)c(F)c4F)cnc23)ccc1C(=O)NCCNC(=O)[C@@H](N)CCNC(=N)N [Example 131, N-[2-[[(2S)-2-amino-4-guanidino-butanoyl]amino]ethyl]-4-[[3-(2,3-difluoro-4-methoxy-phenyl)imidazo[1,2-a]pyrazin-8-yl]amino]-2-ethyl-benzamide formate] | 0.09 µM | –
24 | CCc1cc(Nc2nccn3c(-c4ccc(OC(F)F)c(F)c4F)cnc23)ccc1C(=O)NCCNC(=O)[C@H](N)CCCNC(=N)N [Example 132, N-[2-[[(2R)-2-amino-5-guanidino-pentanoyl]amino]ethyl]-4-[[3-[4-(difluoromethoxy)-2,3-difluoro-phenyl]imidazo[1,2-a]pyrazin-8-yl]amino]-2-ethyl-benzamide formate] | 0.23 µM | –
25 | Cc1cc(Nc2nccn3c(-c4ccc(OCC#N)c(F)c4F)cnc23)ccc1C(=O)NCCNC(=O)[C@@H]1C[C@](C)(O)CN1 [Example 133, (2S,4S)-N-[2-[[4-[[3-[4-(cyanomethoxy)-2,3-difluoro-phenyl]imidazo[1,2-a]pyrazin-8-yl]amino]-2-methyl-benzoyl]amino]ethyl]-4-hydroxy-4-methyl-pyrrolidine-2-carboxamide formate] | 0.09 µM | –
26 | Cc1cc(Nc2nccn3c(-c4ccc(OCC#N)c(F)c4F)cnc23)ccc1C(=O)NCCCNC(=O)[C@@H]1C[C@](C)(O)CN1 [Example 134, (2S,4S)-N-[3-[[4-[[3-[4-(cyanomethoxy)-2,3-difluoro-phenyl]imidazo[1,2-a]pyrazin-8-yl]amino]-2-methyl-benzoyl]amino]propyl]-4-hydroxy-4-methyl-pyrrolidine-2-carboxamide formate] | 0.08 µM | –
